These results are taken from patent publication US20240108636A1, “COMPOSITIONS FOR TREATMENT OF NEURODEGENERATIVE CONDITIONS” (BIOVIE INC., priority 2021, published 2024).

Structures can show the parent of a compound that is named as a salt.

The subject of series [1] is TNF, IL-1b, IL-6, and other inflammatory cytokines. The note with it: cited from earlier work.
Series [2] concerns levodopa-induced dyskinesia (LID). Nature of the series: Abnormal involuntary movements score (AIMS), levodopa-induced dyskinesia in MPTP marmosets. The note with it: for AIMS: Week 12, in combination with levodopa 10 mg/kg, items scored 0-4; for Abnormal involuntary movements scores (AIMS) in combination with levodopa: Week 12, levodopa 5, 7.5, 10, 12.5 or 25 mg/kg, FIG. 2. It counts as in vivo, marmoset monkeys (Callithrix jacchus). As to the method: (§1) The severity of LID was measured by abnormal involuntary movements score (AIMS) adapted to the primate PD model. The items include assessment of extremity and trunk movements, facial expression, and movement of the lips, peri-oral area, tongue, and jaw. These symptoms were scored on a scale from 0 (normal), 1 ([…]), 2 (mild), 3 (moderate) to 4 (severe). Measurement of parkinsonian behaviors continued as previously described. […] The subjects were exsanguinated under deep anaesthesia with Alphaxan (18 mg/kg i.m.). Immediately thereafter, the subjects were euthanized with EUTHASOL (pentobarbital natrium, i.c.). The brain of each subject was removed and frozen for immunohistochemical analyses. SNpc was analyzed for the presence of DA positive neurons with tyrosine hydroxylase immune reactive (TH-IR) staining.

In series [3] the test system is tyrosine hydroxylase positive neurons. Nature of the series: Surviving tyrosine hydroxylase positive neurons in substantia nigra of MPTP marmosets. The settings on record: Week 14, substantia nigra; FIG. 3. It counts as in vivo, marmoset monkeys (Callithrix jacchus). As for the experimental part:
as §1
In Week 14, all subjects were sacrificed and tissue samples from the substantia nigra were evaluated to measure the number of surviving tyrosine hydroxylase positive neurons. The increase in number of surviving TH+ neurons for subjects treated with amantadine and 17-EAT was 40% and 75%, as shown in FIG. 3.

The nature of series [4]: Body weight of MPTP marmosets. The settings on record: FIG. 4. It counts as in vivo, marmoset monkeys (Callithrix jacchus). From the text: (§2) The 1-methyl-4-phenyl-1,2,3,6-tetrahydropyridine (MPTP) model that was used is capable of reducing striatal dopamine levels to 5% of normal controls. The MPTP model was used to produce Parkinson's-like disease symptoms in three sequential independent cohorts of six marmosets monkeys (Callithrix jacchus, approximately 0.3-0.5 kg, 2-5 years) which were then observed for 3 weeks to confirm the absence of parkinsonian behavior and motor abnormalities. A single dose of 17-EAT or amantadine was administered at the beginning of Week 4 to confirm the absence of behavioral side effects. All subjects received subcutaneous injections of 1-2 mg/kg MPTP on Days 3, 4, and 5 of Week 5 and Day 1 and 3 of Week 6 for a total of 6.5 mg/kg MPTP and were observed through the end of Week 7 without further treatment, then randomized for treatment.
Oral administration of treatment of vehicle, amantadine, or 17-EAT formulated in acacia syrup began at the start of Week 8. Vehicle controls received acacia syrup only. Amantadine HCl (Sigma Aldrich, A1260-SG) was administered daily at a dose of 1 mg/kg. 17-EAT was administered daily at a dose of 30 mg/kg. […]

In series [5] the test system is MPTP model of Parkinson's disease. Nature of the series: Immobility score, MPTP model of Parkinson's disease in marmoset monkeys. Format: in vivo, marmoset monkeys (Callithrix jacchus). The settings on record: for Mean immobility score: 0-4 scale.
From the text: as §2
Oral administration of treatment of vehicle, amantadine, or 17-EAT formulated in acacia syrup began at the start of Week 8. Vehicle controls received acacia syrup only. Amantadine HCl (Sigma Aldrich, A1260-SG) was administered daily at a dose of 1 mg/kg. 17-EAT was administered daily at a dose of 30 mg/kg. In Weeks 8 and 9 test compound activity against parkinsonian behavior was observed several times daily for effects on clinical signs (lack of grooming, apathy, immobility, muscle rigidity, and tremor activity) and given an immobility score on a 0-4 scale, with 0 being normal and 4 being the most severe score. Ratings were performed by study personnel blind to treatment.

Series [6] relates to rodent models of systemic inflammation and neuroinflammation. The settings on record: cited from earlier work.
The mark [7] stands for this setting: Week 7, prior to treatment, 0 normal, 4 most severe.
The mark [8] stands for this setting: Week 8, monotherapy, oral daily (amantadine 1 mg/kg, 17-EAT 30 mg/kg).
Setting [9] is: Week 9, monotherapy, oral daily (amantadine 1 mg/kg, 17-EAT 30 mg/kg).

As to `C#C[C@]1(O)CC[C@H]2[C@@H]3[C@@H](O)C=C4C[C@@H](O)CC[C@]4(C)[C@H]3CC[C@@]21C` [Compound 17-EAT, 17-ethynyl-10R, 13S-dimethyl 2,3,4,7, 8R, 9S, 10, 11, 12, 13, 14S, 15, 16, 17-hexadecahydro-1H-cyclopenta[a]phenanthrene-3R, 7R, 17S-triol], the “Expression of TNF, IL-1b, IL-6, and other inflammatory cytokines” value in series [1] is reported as “decreases expression”. Further, the AIMS in series [2] was found to be 2.1. Also, the “Abnormal involuntary movements scores (AIMS) in combination with levodopa” value in series [2] was “improved compared to monotherapy”. Further, the “Increase in number of surviving TH+ neurons” value in series [3] is recorded as 75%. The Mean body weight entry in series [4] is “maintained a higher mean body weight compared to either vehicle or amantadine”. The Mean immobility score in series [5] (setting [7]) came to 2.72; in series [5] (setting [8]), 2.26; in series [5] (setting [9]) it was 2.10. Moreover, in series [5] (combination with levodopa 5, 7.5, 10, 12.5 or 25 mg/kg, FIG. 1), the “Mean immobility scores in combination with levodopa” value was “improved compared to 17-EAT monotherapy”. The “Activity in rodent models of neurological disease” value in series [6] (Parkinson's disease, experimental autoimmune encephalomyelitis, optic neuritis, glaucoma) is reported as “anti-neuroinflammatory or neuroprotective activity”. For the same compound, the “Activity in rodent models of systemic inflammation” value in series [6] (type 2 diabetes, COPD, rheumatoid arthritis) is “active in rodent models of systemic inflammation”.

For the compound `NC12CC3CC(CC(C3)C1)C2` [Amantadine, Amantadine HCl], the AIMS in series [2] is on record as 4.5. In addition, the “Abnormal involuntary movements scores (AIMS) in combination with levodopa” value in series [2] is on record as “improved compared to monotherapy”. Besides, the “Increase in number of surviving TH+ neurons” value in series [3] was determined as 40%. For the same compound, the Mean immobility score was found to be 2.59 in series [5] (setting [7]), 2.74 in series [5] (setting [8]) and 2.72 in series [5] (setting [9]).

As for `N[C@@H](Cc1ccc(O)c(O)c1)C(=O)O` [Levodopa, L-3,4-dihydroxyphenylalanine], in series [2] (levodopa 12.5 mg/kg BID), the LID expression entry was “induced LID expression in all subjects”.
